Experimental data reported in patent publication US20180110762A1, “Compositions Methods for Treating Chronic Kidney Disease” (Merck Sharp & Dohme Corp, priority 2015, published 2018).

Key:
[1] = target: T1, Human recombinant integrin α5β1 (Homo sapiens, UniProt P05556+P08648); experiment: Solid phase receptor assay, α5β1 (fibronectin); assay type: binding
T1 construct: purchased R&D Systems
Description: The assay was performed according to the method described in International Patent Publication WO 2014/015054 A1 “Beta Amino Acid Derivatives As Integrin Antagonists.” Briefly, 96-well plates were coated overnight with purified fibronectin or vitronectin (R&D Systems) in TBS+ buffer (25 mM Tris 7.4, 137 mM NaCl, 2.7 mM KCl, 1 mM CaCl2, 1 mM MgCl2, 1 mM MnCl2). Compound A was added at different concentrations to recombinant human integrin proteins (R&D Systems) reconstituted in TBS+/0.1% bovine serum albumin, and 50 μL of this mixture were added to the empty wells of the coated plate and incubated for 1-2 hours. After 3 washes, 50 μL of biotinylated antibody (R&D Systems) in TBS+/0.1% bovine serum albumin were added. The procedure continued with three more washes, addition of 50 μL of streptavidin-conjugated horseradish peroxidase (R&D Systems), and incubation for 20 minutes. After 3 more washes, 50 μL of tetramethylbenzidine (TMB) substrate (SIGMA) were added and plates were read after 20 min by colorimetric detection at 650 nm wavelength in an EnVision Multilabel Plate Reader (Perkin Elmer). The concentrations of fibronectin used were: 2 μg/mL for the α5β1 assay and 5 μg/mL for the αvβ1 assay. The concentrations of vitronectin used were: 1 μg/mL for the αvβ3 assay and 0.25 μg/mL for the αvβ5 assay. […]

[2] = tested on: male obese ZSF1 rats (diabetic nephropathy model); experiment: ZSF1 rat 28-week in-feed study: urinary protein (UPCR, 24 h excretion); assay type: in vivo; conditions: for 24 h Urinary Protein Excretion / UPCR (urinary protein/creatinine ratio): obese ZSF1 rats
Description: (§1) The effects of Compound A (“A”) on renal function, plasma triglycerides, plasma cholesterol, kidney collagen I, kidney collagen III, renal histology, glomerular filtration rate, fibrosis score, and mRNA gene expression (profibrotic genes and integrin β3) were evaluated in male obese ZSF1 rats (a hybrid F1 of Zucker diabetic fatty rat and spontaneously hypertensive heart failure rat; a diabetic nephropathy model) when administered as in-feed for 28 weeks. Sixty obese male ZSF1 rats were randomized to five groups: Obese control (n=12), Compound A 60 mpk (n=12), Compound A 200 mpk (n=12), Compound A 400 mpk (n=12), Enalapril 10 mpk (n=12); Eight lean male ZSF1 rats were used for normal control. Renal functional changes were monitored by blood and urine analysis following in-feed dosing for 28 weeks. Compound exposure was also monitored during the study.

[3] = tested on: male obese ZSF1 rats (diabetic nephropathy model); experiment: ZSF1 rat study: kidney collagen I and III immunostaining; assay type: in vivo
Description: as §1
Following deparaffinization and rehydration, each kidney tissue section was processed to identify collagen I and III deposition. The primary antibodies used were rabbit anti-type I collagen polyclonal antibody (Abcam, Cambridge, Mass.) diluted at 2 ug/ml, and rabbit anti-type III collagen polyclonal antibody (Lifespan, Seattle, Wash.) at 3 ug/ml. The signal was developed by using Super PicTure HRP Polymer Rabbit Primary kit (Invitrogen) and the slides were counterstained with hematoxylin. The Aperio ScanScope XT Slide Scanner (Aperio Technologies, Vista, Calif.) system was used to capture whole slide digital images with a 20× objective. Digital images were managed using Aperio Spectrum. The positive stains were identified and quantified using a macro created from a color deconvolution algorithm (Aperio Technologies, Vista, Calif.).

[4] = obese ZSF1 rats, 400 mpk in-feed, week 28

T1 sequence (P08648 42-995 limits assumed): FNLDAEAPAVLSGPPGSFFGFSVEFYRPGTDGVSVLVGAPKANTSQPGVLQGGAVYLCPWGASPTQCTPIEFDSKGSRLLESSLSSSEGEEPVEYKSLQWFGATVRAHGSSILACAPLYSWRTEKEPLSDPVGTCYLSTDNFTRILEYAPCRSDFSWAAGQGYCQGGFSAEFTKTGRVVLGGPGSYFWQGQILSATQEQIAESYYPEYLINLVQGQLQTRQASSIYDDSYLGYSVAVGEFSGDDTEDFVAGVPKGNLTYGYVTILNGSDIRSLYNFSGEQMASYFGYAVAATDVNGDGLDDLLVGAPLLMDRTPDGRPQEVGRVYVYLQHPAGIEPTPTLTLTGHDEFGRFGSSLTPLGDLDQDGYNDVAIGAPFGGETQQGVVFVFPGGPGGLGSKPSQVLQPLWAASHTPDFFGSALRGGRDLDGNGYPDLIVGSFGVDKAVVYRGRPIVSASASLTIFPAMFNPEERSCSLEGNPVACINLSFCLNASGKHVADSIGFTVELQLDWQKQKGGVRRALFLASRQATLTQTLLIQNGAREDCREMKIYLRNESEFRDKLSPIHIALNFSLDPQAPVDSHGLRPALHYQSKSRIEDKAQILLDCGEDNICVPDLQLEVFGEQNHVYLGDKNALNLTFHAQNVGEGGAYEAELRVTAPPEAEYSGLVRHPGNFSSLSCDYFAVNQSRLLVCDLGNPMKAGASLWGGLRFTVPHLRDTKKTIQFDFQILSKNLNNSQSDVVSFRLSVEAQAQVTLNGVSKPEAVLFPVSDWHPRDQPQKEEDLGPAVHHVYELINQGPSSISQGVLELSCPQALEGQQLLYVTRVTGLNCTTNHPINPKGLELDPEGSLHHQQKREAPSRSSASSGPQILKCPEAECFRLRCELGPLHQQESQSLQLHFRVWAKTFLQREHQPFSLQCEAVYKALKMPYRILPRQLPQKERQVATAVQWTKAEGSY
T1 sequence (P05556 21-728 limits assumed): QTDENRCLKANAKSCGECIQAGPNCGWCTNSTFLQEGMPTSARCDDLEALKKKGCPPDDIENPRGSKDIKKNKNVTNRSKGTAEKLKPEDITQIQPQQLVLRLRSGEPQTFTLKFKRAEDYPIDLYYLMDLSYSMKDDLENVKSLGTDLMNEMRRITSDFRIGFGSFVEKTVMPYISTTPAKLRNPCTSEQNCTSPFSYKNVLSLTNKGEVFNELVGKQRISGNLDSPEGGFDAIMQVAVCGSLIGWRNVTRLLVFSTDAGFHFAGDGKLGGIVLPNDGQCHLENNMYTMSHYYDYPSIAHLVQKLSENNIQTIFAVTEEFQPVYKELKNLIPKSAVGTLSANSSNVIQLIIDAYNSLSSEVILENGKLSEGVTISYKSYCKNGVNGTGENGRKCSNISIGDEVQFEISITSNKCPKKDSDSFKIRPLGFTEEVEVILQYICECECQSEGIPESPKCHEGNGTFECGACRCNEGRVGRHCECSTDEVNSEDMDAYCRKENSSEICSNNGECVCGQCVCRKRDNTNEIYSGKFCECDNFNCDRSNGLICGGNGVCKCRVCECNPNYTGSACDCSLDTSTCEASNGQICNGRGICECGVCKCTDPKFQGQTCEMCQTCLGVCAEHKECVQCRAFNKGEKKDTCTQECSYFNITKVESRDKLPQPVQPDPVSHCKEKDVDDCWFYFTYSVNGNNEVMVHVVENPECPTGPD

With `COc1ccc([C@H](CC(=O)O)N2CCN(CCCc3ccc4c(n3)NCCC4)C2=O)cn1` [Compound A, 3-{2-Oxo-3-[3-(5,6,7,8-tetrahydro-[1,8]naphthyridin-2-yl)-propyl]imidazolidin-1-yl}-3 (S)-(6-methoxy-pyridin-3-yl)-propionic acid] the IC50 ([1]; α5β1, first of two experiments) was 4.9 nM, the IC50 ([1]; α5β1, second of two experiments) was 19.6 nM and the “effect on urinary protein/creatinine ratio (UPCR)” value ([2]; 400 mpk, 16-, 21-, 24- and 28-week of treatment) was “significantly decreased”. The “effect on 24 h urinary protein excretion” value ([2]; 400 mpk, 16-, 24- and 28-week of treatment) was “significantly decreased”, the “renal protection: proteinuria and albuminuria” value ([2]; ZSF-1 rats vs untreated obese ZSF-1 rats (summary)) was “ameliorating proteinuria and albuminuria” and the “24 h Urinary Protein Excretion” value ([2]; 60 mpk in-feed, week 1) was 137.2 ± 12.7 mg/24 h. The “UPCR (urinary protein/creatinine ratio)” value ([2]; 60 mpk in-feed, week 1) was 12.3 ± 1.0 mg/mg, the “24 h Urinary Protein Excretion” value ([2]; 60 mpk in-feed, week 2) was 139.6 ± 11.8 mg/24 h and the “UPCR (urinary protein/creatinine ratio)” value ([2]; 60 mpk in-feed, week 2) was 11.9 ± 1.0 mg/mg. The “24 h Urinary Protein Excretion” value ([2]; 60 mpk in-feed, week 4) was 158.4 ± 13.7 mg/24 h, the “UPCR (urinary protein/creatinine ratio)” value ([2]; 60 mpk in-feed, week 4) was 13.4 ± 1.1 mg/mg and the “24 h Urinary Protein Excretion” value ([2]; 60 mpk in-feed, week 6) was 197.9 ± 15.7 mg/24 h. For the same molecule, the “UPCR (urinary protein/creatinine ratio)” value ([2]; 60 mpk in-feed, week 6) was 16.6 ± 1.2 mg/mg, the “24 h Urinary Protein Excretion” value ([2]; 60 mpk in-feed, week 8) was 265.7 ± 18.3 mg/24 h and the “UPCR (urinary protein/creatinine ratio)” value ([2]; 60 mpk in-feed, week 8) was 20.2 ± 1.4 mg/mg. For the same molecule, the “24 h Urinary Protein Excretion” value ([2]; 60 mpk in-feed, week 12) was 425.3 ± 21.6 mg/24 h, the “UPCR (urinary protein/creatinine ratio)” value ([2]; 60 mpk in-feed, week 12) was 30.8 ± 1.7 mg/mg and the “24 h Urinary Protein Excretion” value ([2]; 60 mpk in-feed, week 16) was 462.2 ± 30.4 mg/24 h. The “UPCR (urinary protein/creatinine ratio)” value ([2]; 60 mpk in-feed, week 16) was 27.3 ± 1.7 mg/mg, the “24 h Urinary Protein Excretion” value ([2]; 60 mpk in-feed, week 21) was 486.2 ± 39.2 mg/24 h and the “UPCR (urinary protein/creatinine ratio)” value ([2]; 60 mpk in-feed, week 21) was 27.7 ± 2.0+ mg/mg. For the same molecule, the “24 h Urinary Protein Excretion” value ([2]; 60 mpk in-feed, week 24) was 582.0 ± 43.9 mg/24 h, the “UPCR (urinary protein/creatinine ratio)” value ([2]; 60 mpk in-feed, week 24) was 34.4 ± 2.3 mg/mg and the “24 h Urinary Protein Excretion” value ([2]; 60 mpk in-feed, week 28) was 654.3 ± 48.1 mg/24 h. The “UPCR (urinary protein/creatinine ratio)” value ([2]; 60 mpk in-feed, week 28) was 37.5 ± 2.8 mg/mg, the “24 h Urinary Protein Excretion” value ([2]; 60 mpk in-feed, week −2) was 128.8 ± 11.0 mg/24 h and the “UPCR (urinary protein/creatinine ratio)” value ([2]; 60 mpk in-feed, week −2) was 10.9 ± 0.9 mg/mg. For the same molecule, the “24 h Urinary Protein Excretion” value ([2]; 200 mpk in-feed, week 1) was 117.7 ± 9.4 mg/24 h, the “UPCR (urinary protein/creatinine ratio)” value ([2]; 200 mpk in-feed, week 1) was 10.7 ± 0.8 mg/mg and the “24 h Urinary Protein Excretion” value ([2]; 200 mpk in-feed, week 2) was 124.9 ± 10.9 mg/24 h. The “UPCR (urinary protein/creatinine ratio)” value ([2]; 200 mpk in-feed, week 2) was 10.9 ± 1.0 mg/mg, the “24 h Urinary Protein Excretion” value ([2]; 200 mpk in-feed, week 4) was 140.0 ± 12.4 mg/24 h and the “UPCR (urinary protein/creatinine ratio)” value ([2]; 200 mpk in-feed, week 4) was 12.1 ± 1.1 mg/mg. The “24 h Urinary Protein Excretion” value ([2]; 200 mpk in-feed, week 6) was 167.1 ± 15.0 mg/24 h, the “UPCR (urinary protein/creatinine ratio)” value ([2]; 200 mpk in-feed, week 6) was 14.1 ± 1.2 mg/mg and the “24 h Urinary Protein Excretion” value ([2]; 200 mpk in-feed, week 8) was 233.9 ± 18.7 mg/24 h. For the same molecule, the “UPCR (urinary protein/creatinine ratio)” value ([2]; 200 mpk in-feed, week 8) was 18.0 ± 1.5 mg/mg, the “24 h Urinary Protein Excretion” value ([2]; 200 mpk in-feed, week 12) was 400.5 ± 20.5 mg/24 h and the “UPCR (urinary protein/creatinine ratio)” value ([2]; 200 mpk in-feed, week 12) was 28.7 ± 1.6 mg/mg. The “24 h Urinary Protein Excretion” value ([2]; 200 mpk in-feed, week 16) was 452.2 ± 27.6 mg/24 h, the “UPCR (urinary protein/creatinine ratio)” value ([2]; 200 mpk in-feed, week 16) was 26.3 ± 1.5 mg/mg and the “24 h Urinary Protein Excretion” value ([2]; 200 mpk in-feed, week 21) was 489.0 ± 28.6 mg/24 h. For the same molecule, the “UPCR (urinary protein/creatinine ratio)” value ([2]; 200 mpk in-feed, week 21) was 28.1 ± 1.6+ mg/mg, the “24 h Urinary Protein Excretion” value ([2]; 200 mpk in-feed, week 24) was 541.6 ± 32.3 mg/24 h and the “UPCR (urinary protein/creatinine ratio)” value ([2]; 200 mpk in-feed, week 24) was 32.0 ± 1.9 mg/mg. For the same molecule, the “24 h Urinary Protein Excretion” value ([2]; 200 mpk in-feed, week 28) was 646.2 ± 44.6 mg/24 h, the “UPCR (urinary protein/creatinine ratio)” value ([2]; 200 mpk in-feed, week 28) was 36.5 ± 2.3 mg/mg and the “24 h Urinary Protein Excretion” value ([2]; 200 mpk in-feed, week −2) was 122.3 ± 9.5 mg/24 h. For the same molecule, the “UPCR (urinary protein/creatinine ratio)” value ([2]; 200 mpk in-feed, week −2) was 10.7 ± 0.9 mg/mg, the “24 h Urinary Protein Excretion” value ([2]; 400 mpk in-feed, week 1) was 138.5 ± 11.3 mg/24 h and the “UPCR (urinary protein/creatinine ratio)” value ([2]; 400 mpk in-feed, week 1) was 12.3 ± 0.9 mg/mg. The “24 h Urinary Protein Excretion” value ([2]; 400 mpk in-feed, week 2) was 148.8 ± 12.3 mg/24 h, the “UPCR (urinary protein/creatinine ratio)” value ([2]; 400 mpk in-feed, week 2) was 12.5 ± 0.9 mg/mg and the “24 h Urinary Protein Excretion” value ([2]; 400 mpk in-feed, week 4) was 148.0 ± 8.3 mg/24 h. For the same molecule, the “UPCR (urinary protein/creatinine ratio)” value ([2]; 400 mpk in-feed, week 4) was 12.7 ± 0.6 mg/mg, the “24 h Urinary Protein Excretion” value ([2]; 400 mpk in-feed, week 6) was 162.6 ± 11.7 mg/24 h and the “UPCR (urinary protein/creatinine ratio)” value ([2]; 400 mpk in-feed, week 6) was 13.8 ± 0.9 mg/mg. For the same molecule, the “24 h Urinary Protein Excretion” value ([2]; 400 mpk in-feed, week 8) was 224.8 ± 16.3 mg/24 h, the “UPCR (urinary protein/creatinine ratio)” value ([2]; 400 mpk in-feed, week 8) was 17.8 ± 1.2 mg/mg and the “24 h Urinary Protein Excretion” value ([2]; 400 mpk in-feed, week 12) was 358.4 ± 19.9 mg/24 h. The “UPCR (urinary protein/creatinine ratio)” value ([2]; 400 mpk in-feed, week 12) was 26.9 ± 1.5 mg/mg, the “24 h Urinary Protein Excretion” value ([2]; 400 mpk in-feed, week 16) was 360.5 ± 19.7++ mg/24 h and the “UPCR (urinary protein/creatinine ratio)” value ([2]; 400 mpk in-feed, week 16) was 20.9 ± 1.0++ mg/mg. For the same molecule, the “24 h Urinary Protein Excretion” value ([2]; 400 mpk in-feed, week 21) was 448.1 ± 19.6 mg/24 h, the “UPCR (urinary protein/creatinine ratio)” value ([2]; 400 mpk in-feed, week 21) was 26.0 ± 1.3++ mg/mg and the “24 h Urinary Protein Excretion” value ([2]; 400 mpk in-feed, week 24) was 483.8 ± 27.1++ mg/24 h. The “UPCR (urinary protein/creatinine ratio)” value ([2]; 400 mpk in-feed, week 24) was 28.1 ± 1.7++ mg/mg, the “24 h Urinary Protein Excretion” value ([2]; 400 mpk in-feed, week 28) was 554.9 ± 28.3++ mg/24 h and the “UPCR (urinary protein/creatinine ratio)” value ([2]; 400 mpk in-feed, week 28) was 31.2 ± 1.7++ mg/mg. For the same molecule, the “24 h Urinary Protein Excretion” value ([2]; 400 mpk in-feed, week −2) was 127.0 ± 11.0 mg/24 h, the “UPCR (urinary protein/creatinine ratio)” value ([2]; 400 mpk in-feed, week −2) was 10.8 ± 0.9 mg/mg and the “effect on kidney collagen I protein levels vs Obese Vehicle” value ([3]; 400 mpk at week 28) was “significantly decreased”. The “effect on kidney collagen III protein levels vs Obese Vehicle” value ([3]; 400 mpk at week 28) was “significantly decreased”, the “kidney collagen I protein levels” value ([3]; obese ZSF1 rats, 200 mpk in-feed, week 28) was 39.79 ± 0.82 % of area and the “kidney collagen I protein levels” value [3, 4] was 36.45 ± 0.85 % of area. For the same molecule, the “kidney collagen III protein levels” value [3, 4] was 19.23 ± 0.76 % of area.
